US5023338A, “Renin inhibitors” (American Home Products Corporation, priority 1990, dated 1991)

Experiments:
renin = biological target: T1, renin (Homo sapiens, UniProt P00797); test: in vitro inhibition of renin, radio immunoassay detection of Angiotensin I from an angiotensinogen-like substrate; assay type: biochemical; conditions: 10^-6 M concentration of test compound
T1 sequence (P00797 67-406): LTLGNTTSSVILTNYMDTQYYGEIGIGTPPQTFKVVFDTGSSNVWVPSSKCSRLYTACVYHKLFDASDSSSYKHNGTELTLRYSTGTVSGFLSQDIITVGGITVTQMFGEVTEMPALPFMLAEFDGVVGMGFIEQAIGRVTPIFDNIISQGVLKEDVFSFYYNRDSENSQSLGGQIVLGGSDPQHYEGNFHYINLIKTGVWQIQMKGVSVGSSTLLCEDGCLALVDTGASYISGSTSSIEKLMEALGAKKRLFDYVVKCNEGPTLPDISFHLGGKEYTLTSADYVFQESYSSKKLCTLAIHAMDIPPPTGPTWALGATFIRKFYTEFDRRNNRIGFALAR
Source text: The potent in vitro inhibition of the aspartyl protease renin was established using standard radio immunoassay techniques for the detection of Angiotensin I from an angiotensinogen-like substrate [Haber et al. (1969), J. Clin. Endocrinol. 29, 1349]. The results of these standard test procedures appears at the end of each Example of preparation of the relevant compound, as the percent inhibition of renin activity at […] concentration of test compound. The compounds of this invention have also shown strong resistance to breakdown by degradative enzymes such as chymotrypsin, following the procedure of Thaisrivongs et al. (1987) J. Med. Chem. 30, 536-541. […] Even after a 24 hour incubation, 68% of the compound of Example 1 remained. In accord with their ability to inhibit the enzyme renin, the compounds of this invention show plasma renin lowering effects and an antihypertensive action in a furosemide-stimulated high-renin model [De […]. et al. (1985), J. Cardiovascular Pharmacology 7, (Suppl. 4), S58-S61] with conscious rhesus monkeys, utilizing intravenous as well as oral dosing. For example, the product of Example 1 administered at 5 mg/kg iv lowered plasma renin activity (PRA) from 45 ng/ml/min to 5 ng/ml/min one half hour post-administration. Mean arterial pressure (MAP) was lowered 25 mm in that time period.

[1] = resistance to breakdown on incubation with chymotrypsin; assay type: in vitro ADME; conditions: read-out: remaining compound after incubation with chymotrypsin; for remaining at 1 h: incubation for one hour
Source text: The potent in vitro inhibition of the aspartyl protease renin was established using standard radio immunoassay techniques for the detection of Angiotensin I from an angiotensinogen-like substrate [Haber et al. (1969), J. Clin. Endocrinol. 29, 1349]. The results of these standard test procedures appears at the end of each Example of preparation of the relevant compound, as the percent inhibition of renin activity at […] concentration of test compound. The compounds of this invention have also shown strong resistance to breakdown by degradative enzymes such as chymotrypsin, following the procedure of Thaisrivongs et al. (1987) J. Med. Chem. 30, 536-541. For example, the compound of Example 1 was nearly unchanged upon incubation with chymotrypsin for one hour (93% remaining compound) whereas Boc-Phe Leu-ACHBA-OMe was extensively degraded (22% remaining compound) in the same time period. Even after a 24 hour incubation, 68% of the compound of Example 1 remained. In accord with their ability to inhibit the enzyme renin, the compounds of this invention show plasma renin lowering effects and an antihypertensive action in a furosemide-stimulated high-renin model [De Claviere, M. et al. (1985), J. Cardiovascular Pharmacology 7, (Suppl. 4), S58-S61] with conscious rhesus monkeys, utilizing intravenous as well as oral dosing. For example, the product of Example 1 administered at 5 mg/kg iv lowered plasma renin activity (PRA) from 45 ng/ml/min to 5 ng/ml/min one half hour post-administration. Mean arterial pressure (MAP) was lowered 25 mm in that time period.

[2] = system: conscious rhesus monkeys (furosemide-stimulated high-renin model); test: furosemide-stimulated high-renin model with conscious rhesus monkeys; assay type: in vivo
[3] = orally at 50 ng/kg, one-half hour post-administration

Row | % I, percent inhibition of renin activity (renin) | Compound | further results
1 | 83% | CC(C)OC(=O)C(O)C(CC1CCCCC1)NC(=O)[C@H](Cc1c[nH]cn1)NC(=O)[C@H](Cc1ccccc1)N1Cc2ccccc2C1=O (stereo partly drawn) [Example 5, Beta-[[2-[[2-(1,3-dihydro-1-oxo-2H-isoindol-2-yl)-1-oxo-3-phenylpropyl]amino]-3-(1H-imidazol-4-yl)-1-oxopropyl]amino]-alphahydroxycyclohexanebutanoic acid 1-methylethyl ester] | –
2 | 45% | COC(=O)C(O)C(CC1CCCCC1)NC(=O)[C@H](CC(C)C)NC(=O)[C@H](Cc1ccccc1)N1C(=O)c2ccccc2C1=O (stereo partly drawn) [Example 6, Beta-[[2-[[2-(1,3-dihydro-1,3-dioxo-2H-isoindol-2-yl)-1-oxo-3-phenylpropyl]amino]-4-methyl-1-oxopentyl]amino]-alphahydroxycyclohexanebutanoic acid methyl ester] | –
3 | 9% | COC(=O)C(O)C(CC1CCCCC1)NC(=O)[C@H](Cc1c[nH]cn1)NC(=O)[C@H](Cc1ccccc1)N1C(=O)c2ccccc2C1=O (stereo partly drawn) [Example 7, Beta-[[2-[[2-(1,3-dihydro-1,3-dioxo-2H-isoindol-2-yl)-1-oxo-3-phenylpropyl]amino]-3-(1H-imidazol-4-yl)-1-oxopropyl]amino]-alphahydroxycyclohexanebutanoic acid methyl ester] | –
4 | 76% | COC(=O)C(O)C(CC1CCCCC1)NC(=O)[C@H](CC(C)C)NC(=O)[C@H](Cc1ccccc1)N1C(=O)OC(C)(C)C1C (stereo partly drawn) [Example 9, Beta-[[2-[[2-[4,5,5-trimethyl-2-oxo-3-oxazolidinyl]-1-oxo-3-phenylpropyl]amino]-4-methyl-1-oxo-pentyl]amino]-alphahydroxycyclohexanebutanoic acid methyl ester] | –
5 | 99% | CCC[C@H](NC(=O)[C@H](Cc1ccccc1)N1Cc2ccccc2C1=O)C(=O)NC(CC1CCCCC1)C(O)C(=O)OC(C)C (stereo partly drawn) [Example 11, Beta-[[2-[[2-[1,3-dihydro-1-oxo-2H-isoindol-2-yl]-1-oxo-3-phenylpropyl]amino]-1-oxo-pentyl]amino]-alphahydroxycyclohexanebutanoic acid 1-methylethyl ester] | –
6 | 92% | CC(C)C[C@H](NC(=O)[C@H](Cc1ccccc1)N1Cc2cccc3cccc(c23)C1=O)C(=O)NC(CC1CCCCC1)C(O)C(=O)OC(C)C (stereo partly drawn) [Example 13, Beta-[[2-[[2-[1,3-dihydro-1-oxo-2H-benzisoquinolin-2-yl]-1-oxo-3-phenylpropyl]amino]-4-methyl-1-oxo-pentyl]amino]-alphahydroxycyclohexanebutanoic acid 1-methylethyl ester] | –
7 | 93% | CC(C)C[C@H](NC(=O)[C@H](Cc1ccccc1)N1CCCC1=O)C(=O)NC(CC1CCCCC1)C(O)C(=O)OC(C)C (stereo partly drawn) [Example 14, Beta-[[2-[[2-[2-oxo-1-pyrrolidinyl]-1-oxo-3-phenylpropyl]amino]-4-methyl-1-oxo-pentyl]amino]-alpha-hydroxycyclohexanebutanoic acid 1-methylethyl ester] | –
8 | 96% | Beta-[[2-[[2-[5-oxo-5H-imidazo[1,2-a]imidazol-6(7H)-yl]-1-oxo-3-phenylpropyl]amino]-4-methyl-1-oxo-pentyl]amino]-alpha-hydroxycyclohexanebutanoic acid 1-methylethyl ester [Example 15] | –

The next lines start with the compound.

Row | Compound | % I, percent inhibition of renin activity (renin) | further results
9 | CC(C)C[C@H](NC(=O)[C@H](Cc1ccccc1)N1Cc2ccccc2C1=O)C(=O)NC(CC1CCCCC1)C(O)C(=O)OC(C)C (single isomer, unassigned) [Example 2 Diastereomer A, Beta-[[2-[[2-[1,3-dihydro-1-oxo-2H-isoindol-2-yl]-1-oxo-3-phenylpropyl]amino]-4-methyl-1-oxo-pentyl]amino]-alpha-hydroxycyclohexanebutanoic acid 1-methylethyl ester] | 98% | –
10 | COC(=O)C(O)C(CC1CCCCC1)NC(=O)[C@H](CC(C)C)NC(=O)[C@H](Cc1ccccc1)NC(=O)OC(C)(C)C (stereo partly drawn) [Boc-Phe Leu-ACHBA-OMe, N-tertiary butyloxycarbonyl-Phe-Leu-3-amino-4-cyclohexyl-2-hydroxybutanoic acid methyl ester, reference compound] | – | remaining at 1 h [1]: 22%
11 | COC(=O)C(O)C(CC1CCCCC1)NC(=O)[C@H](CC(C)C)NC(=O)[C@H](Cc1ccccc1)N1Cc2ccccc2C1=O (stereo partly drawn) [Example 1, Beta-[[2-[[2-[1,3-dihydro-1-oxo-2H-isoindol-2-yl]-1-oxo-3-phenylpropyl]amino]-4-methyl-1-oxo-pentyl]amino]-alpha-hydroxycyclohexanebutanoic acid methyl ester] | 97% | remaining at 24 h ([1]; 24 hour incubation): 68%; remaining at 1 h [1]: 93%; lowering of mean arterial pressure (MAP) ([2]; 5 mg/kg iv, one half hour post-administration): 25 mm; plasma renin activity (PRA) after administration ([2]; 5 mg/kg iv, one half hour post-administration, lowered from 45 ng/ml/min): 5 ng/mL/min; change in MAP [2, 3]: no significant change; decrease of PRA [2, 3]: 50%
12 | COC(=O)C(O)C(CC1CCCCC1)NC(=O)[C@H](CC(C)C)NC(=O)[C@H](Cc1ccccc1)N1Cc2ncccc2C1=O (stereo partly drawn) [Example 3, Beta-[[2-[[-2-(1,3-dihydro-1-oxo-2H-pyrrolo[3,4-b]pyridin-2-yl)-1-oxo-3-phenylpropyl]amino]-4-methyl-1-oxopentyl]amino]-alpha-hydroxycyclohexanebutanoic acid methyl ester] | 89% | –
13 | COC(=O)C(O)C(CC1CCCCC1)NC(=O)[C@H](Cc1c[nH]cn1)NC(=O)[C@H](Cc1ccccc1)N1Cc2ccccc2C1=O (stereo partly drawn) [Example 4, Beta-[[2-[[2-(1,3-dihydro-1-oxo-2H-isoindol-2-yl)-1-oxo-3-phenylpropyl]amino]-3-(1H-imidazol-4-yl)-1-oxopropyl]amino]-alpha-hydroxycyclohexane butanoic acid methyl ester] | 84% | –
14 | COC(=O)C(O)C(CC1CCCCC1)NC(=O)[C@H](CC(C)C)NC(=O)[C@H](Cc1ccccc1)N1C(=O)c2cccc3cccc(c23)C1=O (some centres unmarked) [Example 8] | 74% | –
15 | COC(=O)C(O)C(CC1CCCCC1)NC(=O)[C@H](CC(C)C)NC(=O)[C@H](Cc1ccccc1)N1CC(C)(C)OC1=O (stereo partly drawn) [Example 10, Beta-[[2-[[2-[5,5-dimethyl-2-oxo-3-oxazolidinyl]-1-oxo-3-phenylpropyl]amino]-4-methyl-1-oxo-pentyl]amino]-alphahydroxycyclohexanebutanoic acid methyl ester] | 86% | –
16 | CCCC[C@H](NC(=O)[C@H](Cc1ccccc1)N1Cc2ccccc2C1=O)C(=O)NC(CC1CCCCC1)C(O)C(=O)OC(C)C (stereo partly drawn) [Example 12, Beta-[[2-[[2-[1,3-dihydro-1-oxo-2H-isoindol-2-yl]-1-oxo-3-phenylpropyl]amino]-1-oxo-hexyl]amino]-alphahydroxycyclohexanebutanoic acid 1-methylethyl ester] | 99% | –
17 | CC(C)C[C@H](NC(=O)[C@H](Cc1ccccc1)N1C[C@@H]2CCCN2C1=O)C(=O)NC(CC1CCCCC1)C(O)C(=O)OC(C)C (stereo partly drawn) [Example 16, Beta-[[2-[[2-[(7aS)-tetrahydro-3-oxo-1H-pyrrolo[1,2-c]imidazol-2(3H)-yl]-1-oxo-3-phenylpropyl]amino]-4-methyl-1-oxo-pentyl]amino]-alpha-hydroxycyclohexanebutanoic acid 1-methylethyl ester] | 91% | –
